Results published in patent publication US20040162428A1, “6-(2,6-difluorophenyl)-triazolopyrimidines as fungicides” (priority 2001, published 2004).

System: Botrytis cinerea
Experiment: Comparison trial: control of gray mould (Botrytis cinerea) on fruit slices of green pepper
Type: in vivo
Conditions: green pepper fruit slices sprayed with 500 ppm, inoculated after 2 hours, incubated four days at 18-20° C.; untreated infected to 100%
Excerpt: The active compounds, separately or together, were formulated as a 10% emulsion in a mixture of 70% by weight of cyclohexanone, 20% by weight of Nekanil® LN (Lutensol® AP6, wetting agent having emulsifying and dispersant action based on ethoxylated alkylphenols) and 10% by weight of Wettol® EM (nonionic emulsifier based on ethoxylated castor oil) and diluted with water to the desired concentration. Comparison trial—Control of gray mould (Botrytis cinerea) on fruit slices of green pepper Fruit slices of green pepper were sprayed to run-off with an aqueous suspension, containing the concentration of active ingredient or their mixture mentioned in the table below, prepared from a stock solution containing 10% of the active ingredient; 85% cyclohexanone and 5% emulsifier. After 2 hours the sprayed-on layer had dried, the disks were inoculated with a spore suspension of Botrytis cinerea containing 1,7×10^6 spores per ml in 2 wt. % aqueous biomalt solution. The infected fruit slices were then incubated in chambers with high humidity for four days at 18-20° C. The fruit slice area under fungal attack was then assessed visually in percent.

SMILES | infection (fruit slice area under fungal attack in percent) [%]
Fc1cccc(F)c1-c1c(Cl)nc2ncnn2c1NCC(F)(F)F [A] | 100
CC(Nc1c(-c2c(F)cccc2F)c(Cl)nc2ncnn12)C(F)(F)F (centres unmarked) [B] | 20
